Surface tension liquid-gas and mass density data for five compounds are collected here from the NIST ThermoML archive (doi:10.1016/j.jct.2017.08.035).

Numbers after ± are expanded uncertainties.

The conditions of this data set: for surface tension liquid-gas: Maximal bubble pressure; for mass density: 100 kPa, Liquid, Vibrating tube method.

Turning to `CCn1cc[n+](CCOC)c1.O=S(=O)([N-]S(=O)(=O)C(F)(F)F)C(F)(F)F`, the surface tension liquid-gas is, setting by setting: (298.15 K) 36 ± 0.4 mN/m; (303.15 K) 35.8 ± 0.4 mN/m; (308.15 K) 35.5 ± 0.4 mN/m; (313.15 K) 35.2 ± 0.4 mN/m; (318.15 K) 35 ± 0.4 mN/m; (323.15 K) 34.7 ± 0.4 mN/m. For the same compound, the surface tension liquid-gas (328.15 K) stood at 34.4 ± 0.4 mN/m, the surface tension liquid-gas (333.15 K) stood at 34.1 ± 0.4 mN/m and the surface tension liquid-gas (338.15 K) is 33.9 ± 0.4 mN/m. For the same compound, the mass density is, setting by setting: (298.15 K) 1463.13 ± 2.4 kg/m3; (303.15 K) 1458.11 ± 2.4 kg/m3; (308.15 K) 1453.11 ± 2.4 kg/m3; (313.15 K) 1448.12 ± 2.4 kg/m3; (318.15 K) 1443.16 ± 2.4 kg/m3; (323.15 K) 1438.21 ± 2.4 kg/m3. Also, the mass density is, setting by setting: (328.15 K) 1433.29 ± 2.4 kg/m3; (333.15 K) 1428.39 ± 2.4 kg/m3; (338.15 K) 1423.51 ± 2.4 kg/m3.
With `CCn1cc[n+](CCOC)c1.O=S(=O)([O-])C(F)(F)F`, the surface tension liquid-gas (298.15 K) is 38 ± 0.4 mN/m; the surface tension liquid-gas (303.15 K) is listed as 37.7 ± 0.4 mN/m; the surface tension liquid-gas (308.15 K) was determined as 37.4 ± 0.4 mN/m; the surface tension liquid-gas (313.15 K) is given as 37.1 ± 0.4 mN/m; the surface tension liquid-gas (318.15 K) came out at 36.9 ± 0.4 mN/m; the surface tension liquid-gas (323.15 K) is 36.5 ± 0.4 mN/m. The surface tension liquid-gas turned out to be 36.3 ± 0.4 mN/m (328.15 K), 36.1 ± 0.4 mN/m (333.15 K) and 35.8 ± 0.4 mN/m (338.15 K). Also, the mass density reads like this: (298.15 K) 1355.89 ± 4.6 kg/m3; (303.15 K) 1351.61 ± 4.6 kg/m3; (308.15 K) 1347.35 ± 4.6 kg/m3; (313.15 K) 1343.11 ± 4.6 kg/m3; (318.15 K) 1338.88 ± 4.6 kg/m3; (323.15 K) 1334.67 ± 4.6 kg/m3. The mass density is given as 1330.48 ± 4.6 kg/m3 (328.15 K), 1326.3 ± 4.6 kg/m3 (333.15 K) and 1322.12 ± 4.6 kg/m3 (338.15 K).
With `CC(=O)[O-].CCn1cc[n+](CCOC)c1` [1-ethyl-3-(2-methoxyethyl)imidazolium acetate], the surface tension liquid-gas is, setting by setting: (298.15 K) 46 ± 0.5 mN/m; (303.15 K) 45.7 ± 0.5 mN/m; (308.15 K) 45.4 ± 0.5 mN/m; (313.15 K) 45.1 ± 0.5 mN/m; (318.15 K) 44.8 ± 0.5 mN/m; (323.15 K) 44.5 ± 0.5 mN/m. Besides, the surface tension liquid-gas is, setting by setting: (328.15 K) 44.3 ± 0.5 mN/m; (333.15 K) 44.1 ± 0.5 mN/m; (338.15 K) 43.9 ± 0.5 mN/m. The mass density turned out to be 1192.38 ± 4.6 kg/m3 (298.15 K); 1189.07 ± 4.6 kg/m3 (303.15 K); 1185.74 ± 4.6 kg/m3 (308.15 K); 1182.43 ± 4.6 kg/m3 (313.15 K); 1179.14 ± 4.6 kg/m3 (318.15 K); 1175.86 ± 4.6 kg/m3 (323.15 K). Besides, the mass density reads like this: (328.15 K) 1172.58 ± 4.6 kg/m3; (333.15 K) 1169.35 ± 4.6 kg/m3; (338.15 K) 1166.13 ± 4.6 kg/m3.
Regarding `CCn1cc[n+](CCOC)c1.N#C[N-]C#N` [1-ethyl-3-(2-methoxyethyl)imidazolium dicyanamide], the surface tension liquid-gas by setting is: (298.15 K) 44.6 ± 0.5 mN/m; (303.15 K) 44.3 ± 0.5 mN/m; (308.15 K) 44 ± 0.5 mN/m; (313.15 K) 43.7 ± 0.5 mN/m; (318.15 K) 43.4 ± 0.5 mN/m; (323.15 K) 43.1 ± 0.5 mN/m. The surface tension liquid-gas by setting is: (328.15 K) 42.9 ± 0.5 mN/m; (333.15 K) 42.7 ± 0.4 mN/m; (338.15 K) 42.4 ± 0.4 mN/m. Besides, the mass density runs as follows: (298.15 K) 1113.6 ± 4.6 kg/m3; (303.15 K) 1110.21 ± 4.6 kg/m3; (308.15 K) 1106.83 ± 4.6 kg/m3; (313.15 K) 1103.48 ± 4.6 kg/m3; (318.15 K) 1100.15 ± 4.6 kg/m3; (323.15 K) 1096.84 ± 4.6 kg/m3. Further, the mass density by setting is: (328.15 K) 1093.53 ± 4.6 kg/m3; (333.15 K) 1090.26 ± 4.6 kg/m3; (338.15 K) 1087 ± 4.6 kg/m3.
As to `CCn1cc[n+](CCOC)c1.N#C[S-]` [1-ethyl-3-(2-methoxyethyl)imidazolium thiocyanate], the surface tension liquid-gas is, setting by setting: (298.15 K) 49 ± 0.5 mN/m; (303.15 K) 48.7 ± 0.5 mN/m; (308.15 K) 48.4 ± 0.5 mN/m; (313.15 K) 48 ± 0.5 mN/m; (318.15 K) 47.7 ± 0.5 mN/m; (323.15 K) 47.5 ± 0.5 mN/m. For the same compound, the surface tension liquid-gas (328.15 K) was determined as 47.3 ± 0.5 mN/m, the surface tension liquid-gas (333.15 K) amounted to 47.1 ± 0.5 mN/m and the surface tension liquid-gas (338.15 K) is on record as 46.7 ± 0.5 mN/m. In addition, the mass density is given as 1122.11 ± 4.6 kg/m3 (298.15 K); 1118.89 ± 4.6 kg/m3 (303.15 K); 1115.69 ± 4.6 kg/m3 (308.15 K); 1112.52 ± 4.6 kg/m3 (313.15 K); 1109.37 ± 4.6 kg/m3 (318.15 K); 1106.23 ± 4.6 kg/m3 (323.15 K). Also, the mass density by setting is: (328.15 K) 1103.12 ± 4.6 kg/m3; (333.15 K) 1100.01 ± 4.6 kg/m3; (338.15 K) 1096.92 ± 4.6 kg/m3.
